Laboratory results published in PubChem BioAssay AID602296 (Broad Institute, 2012).
Results filed as inconclusive are left out. Calls of active or inactive are those of the source.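 How the source made its calls: active means fitted activation curve crossing 40% at a concentration no higher than the sample's top valid tested dose; inconclusive means flat fitted curve at 30% to 70% activation, or poor curve fit; inactive means signal decrease, flat curve within 30%, or the rest.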

Test system: NIH3T3-HGL HSF-1 response element luciferase, 48 h
Experiment: sustained heat shock response element induction – cell-based, mouse, luciferase, cherry-pick, dose, confirmation (AID 602296);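 further: test compounds applied by themselves with no MG132 co-treatment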

O=C(COC(=O)C1CSC2(c3ccc(F)cc3)CCC(=O)N12)NC(=O)NC1CCCC1 (centres undefined)
AC40: > 26 µM (inactive)

CCNC(=S)N/N=C/c1ccc(-c2ccccc2)o1
AC40: > 26 µM (inactive)

O=C(O)CSc1nc2ccccc2nc1Cc1ccccc1F
AC40: 9.82 µM

COC(=O)c1cnc(N2CCCN(S(=O)(=O)c3ccc(C(F)(F)F)cc3)CC2)nc1C(F)(F)F
AC40: > 26 µM (inactive)

COc1cc2c(cc1NC(=O)COC(=O)[C@@H](NS(=O)(=O)c1ccccc1)C(C)C)oc1ccccc12
AC40: > 26 µM (inactive)

CCCCc1c(O)nc(SCC(=O)N2CCOCC2)n(-c2ccc(OC)cc2)c1=O
AC40: > 26 µM (inactive)

COc1ccc(C(=O)CC(=O)C(=O)Nc2cc(OC)c(OC)c(OC)c2)cc1
AC40: > 26 µM (inactive)

COCCCNC(=O)CCn1c(=O)c2ccccc2n(CC(=O)Nc2cc(Cl)ccc2C)c1=O
AC40: > 26 µM (inactive)

CCC1Oc2ccc(C)cc2N(Cc2cccc(C)c2)C1=O (centres undefined)
AC40: 13.1 µM

Cc1cccc(OCC(=O)Nc2cc(C)ccc2O)c1
AC40: > 26 µM (inactive)

Cc1cc(C)n2nc(N)c(N=Nc3cccc(Cl)c3)c2n1
AC40: > 26 µM (inactive)

Cc1ccccc1CC1(CO)CCCN(C(=O)c2ccccc2Cl)C1 (centres undefined)
AC40: > 26 µM (inactive)

Cc1ccccc1N1CCN(S(=O)(=O)Cc2ccccc2)CC1
AC40: > 26 µM (inactive)

Cc1cccc(NC(=O)CSc2nnc(-c3ccco3)c(-c3ccco3)n2)c1C
AC40: > 26 µM (inactive)

CC1(c2ccc([N+](=O)[O-])cc2)NC(=O)N(CC(=O)c2ccc3c(c2)OCO3)C1=O (centres undefined)
AC40: > 26 µM (inactive)

CCCNC(=O)Nc1ccc(C)cc1C
AC40: > 26 µM (inactive)

O=C(Cc1c(O)c2ccccc2[nH]c1=O)NCc1ccccc1
AC40: > 26 µM (inactive)

CC12CCC3C(CC=C4CC(O)CCC43C)C1C/C(=C\N1CCCC1)C2=O (centres undefined)
AC40: > 26 µM (inactive)

CC1(C)CC(=O)C2=C(C1)OC(N)=C(C#N)C2C#Cc1ccccc1 (centres undefined)
AC40: 10.4 µM

CC1=Nc2cc(C(=O)O)ccc2Sc2c(C)ccc(C)c21
AC40: > 26 µM (inactive)

O=C(NC1CCCCC1)C1CCCN1S(=O)(=O)c1cccc2nsnc12 (centres undefined)
AC40: > 26 µM (inactive)

CC(/C=C/c1cccs1)=C\C(=O)O
AC40: > 26 µM (inactive)

CCN(CC)C(=O)c1ccc(C)c(Br)c1
AC40: > 26 µM (inactive)

Cc1ccc(/C=C2\Oc3cc(OC(=O)N4CCOCC4)ccc3C2=O)cc1
AC40: > 26 µM (inactive)

COC(=O)/C=C1/N/C(=N\c2nc(C)cc(C)n2)N(c2ccc(C)c(C)c2)C1=O
AC40: > 26 µM (inactive)

Clc1ccc(-c2nc(/C=N/N3CCOCC3)c3ccccn23)cc1
AC40: 18.3 µM

CC(=O)SC(C[N+](=O)[O-])c1cn(C(C)=O)c2ccccc12 (centres undefined)
AC40: > 26 µM (inactive)

O=C(NCc1ccccc1)c1c(Cl)nc(Cl)c(Cl)c1Cl
AC40: > 26 µM (inactive)

COc1cnn(-c2cc(Oc3ccc(C)cc3)ncn2)c(=O)c1Cl
AC40: > 26 µM (inactive)

Cc1ccc(NC2=NC3(CCCC3)N=C(N)N2)c(C)c1
AC40: > 26 µM (inactive)

CCOc1ccccc1CNCCN1CCOCC1
AC40: > 26 µM (inactive)

COc1cc(CNCC(O)c2ccccc2)ccc1OCc1ccc(Cl)nc1 (centres undefined)
AC40: > 26 µM (inactive)

CCCC(=O)Nc1cc(-c2nn(C)c(=O)c3ccccc23)ccc1OC
AC40: > 26 µM (inactive)

C=CCn1c(O)c(C(CC)=Nc2ccc3c(c2)CCC3)c(=O)[nH]c1=O
AC40: > 12 µM (inactive)

C=CCn1c(=O)c2ccccc2n2c(SCC(=O)Nc3sc(C)c(CC)c3C(=O)OCC)nnc12
AC40: > 26 µM (inactive)

Cc1nn(C(C)C(=O)NCCCN2CCCCC2C)c(=O)c2c1sc1ccccc12 (centres undefined)
AC40: > 26 µM (inactive)

CC1=C(Sc2nc3ccccc3[nH]2)C(=O)NC(C)(C)C1
AC40: > 26 µM (inactive)

O=c1c2cc(N3CCOCC3)ccc2[nH]c(=S)n1Cc1ccccn1
AC40: 23.5 µM

Cn1c(=O)c(/C=C/c2ccc(F)cc2)nc2ccccc21
AC40: 1.99 µM

COc1cc(SSc2cc(OC)cc([N+](=O)[O-])c2N)c(N)c([N+](=O)[O-])c1
AC40: 17.9 µM

COc1ccc(-c2cc(C(=O)NCc3ccco3)c3ccccc3n2)cc1
AC40: > 26 µM (inactive)

O=C1C2CC=CCC2C(=O)N1Cc1nnc(-c2ccc(Cl)cc2)o1 (centres undefined)
AC40: 6.68 µM

Cn1ccc(C(=O)N/N=C/c2ccncc2)n1
AC40: 14.3 µM

CCOC(=O)c1cccc(NC(=O)Cn2c(CC(=O)NC)nc3ccccc32)c1
AC40: > 26 µM (inactive)

Cc1nc(/C(N)=N/OC(=O)Cc2ccccc2)no1
AC40: 22.2 µM

Cn1c(CN2CCN(C(=O)c3ccc(F)cc3)CC2)nc2cc([N+](=O)[O-])ccc21
AC40: > 26 µM (inactive)

Cc1ccc(CN(C)C(=O)C2CCC(=O)N(CCc3ccccc3)C2)o1 (centres undefined)
AC40: 9.82 µM

O=c1/c(=C/c2ccccc2)sc2nnc(-c3cccs3)n12
AC40: > 26 µM (inactive)

COC(=O)c1ccc(OC(=O)CCN2C(=O)C3CCCCC3C2=O)cc1 (centres undefined)
AC40: > 26 µM (inactive)

Cn1c(Cl)cnc1C1CC(=O)c2cc(Cl)ccc2O1 (centres undefined)
AC40: > 26 µM (inactive)

CCOC(=O)c1sc2nc(C)nc(SCC(=O)NC3CCS(=O)(=O)C3)c2c1C (centres undefined)
AC40: > 26 µM (inactive)

Cc1ccc(C(=O)OCC(=O)c2ccc(Cl)s2)s1
AC40: 15.1 µM

COCCCNC(=O)c1ccc(NS(C)(=O)=O)cc1
AC40: > 26 µM (inactive)

CCC1CCCCN1C(=O)COC(=O)c1cc2ccccc2cc1O (centres undefined)
AC40: > 26 µM (inactive)

O=C1NC(=O)[C@]2(Cc3ccccc3N3CCN(c4ccccc4)CC32)C(=O)N1Cc1ccccc1 (some centres undefined)
AC40: 2.51 µM

COCCCNc1nc2nonc2nc1N1CCN(Cc2cccc(C)c2)CC1
AC40: > 26 µM (inactive)

CSc1ccccc1-n1nnnc1SCC(=O)NCc1cccs1
AC40: > 26 µM (inactive)

COC(=O)[C@@H]1C[C@]2(OC(=O)c3ccccc3)C=CC(=O)C[C@@H]2N1C(=O)OCc1ccccc1
AC40: 12.4 µM

COC(=O)C(C)N(C(=O)c1ccc(C(=O)c2ccccc2)cc1)c1c(C)cccc1C (centres undefined)
AC40: 19.3 µM

C#CC[N+]1(CC#Cc2ccccc2)CCCCC1
AC40: > 26 µM (inactive)

N#C/C(C(=O)NCc1ccccc1)=C1/N=C(NC(=O)c2ccco2)c2ccccc21
AC40: > 26 µM (inactive)

O=C(NCc1ccc(N2CCCC2=O)cc1)Nc1ccccc1
AC40: > 26 µM (inactive)

CCc1nc(SCC(=O)c2ccc(Cl)s2)c2oc3ccccc3c2n1
AC40: 18.6 µM

COc1cc(OC)c(OC)cc1CN(C)CCc1ccccn1
AC40: 25.8 µM

CCc1cc(C(c2ccccc2OC)N2CCOCC2)c(NC(=O)c2ccccc2)s1 (centres undefined)
AC40: > 26 µM (inactive)

Cc1ccc2nc(SCC(=O)NCc3ccc(F)cc3)[nH]c2c1
AC40: > 26 µM (inactive)

COCCNC(=S)N/N=C/c1ccc(N2CCOCC2)cc1
AC40: > 26 µM (inactive)

CC(C)Nc1nc(Cl)nc(N(C#N)CN2C(=O)c3ccccc3C2=O)n1
AC40: > 26 µM (inactive)

Cn1c(CO)cnc1SCC(=O)c1ccc(Cl)cc1
AC40: 8.6 µM
